Test results from PMC10687119, “Quaternary Ammonium Salts of Cationic Lipopeptides with Lysine Residues — Synthesis, Antimicrobial, Hemolytic and Cytotoxic Activities” (Probiotics and Antimicrobial Proteins, 2023).
Converted amounts (≈) assume the structure as drawn.

Key:
human keratinocytes = tested on: human keratinocytes; design: method as in PMID 33003569; conditions: toxicity towards human keratinocytes ref 3; in µg/mL; cited from earlier work
S. aureus = tested on: S. aureus; design: method as in PMID 20374251; conditions: against S. aureus ref 5; cited from earlier work
[1] = cited from earlier work
[2] = tested on: K. pneumoniae ATCC 700603; format: cell-based, Klebsiella pneumoniae; conditions: ATCC 700603, 18 h
Description: (§1) The Acinetobacter baumannii ATCC BAA-1605, Enterococcus faecium ATCC 700221, Klebsiella aerogenes ATCC 13048, Klebsiella pneumoniae ATCC 700603, Pseudomonas aeruginosa ATCC 9027, Staphylococcus aureus ATCC 33591, Candida glabrata ATCC 15126 strains were acquired from the American Type Culture Collection (ATCC, Manassas, USA). All the strains were stored at −80 °C in Roti-Store cryo vials (Carl Roth GmbH, Germany) and before the tests were transferred into fresh Mueller–Hinton broth (MHB, Becton Dickinson, Poland) for bacteria or RPMI-1640 (Sigma-Aldrich, Germany) for fungi and incubated for 24 h at 37 °C. Then, the cultures were cultured on the Mueller–Hinton agar (BioMaxima, Poland) or Sabouraud dextrose agar (SDA, BioMaxima) plates, respectively, and incubated as just mentioned. For microbiological assays, a minimum of three to five well-isolated colonies of the same morphological type were carefully picked from the agar cultures. These colonies were transferred with sterile loop into fresh microbiological medium and incubated with shaking (100 rpm) at 37 °C until they reached logarithmic phase of growth. Cell densities for all assays were adjusted through spectrophotometric measurements (Multiskan GO Microplate Spectrophotometer, Thermo Fisher Scientific, Finland) at 600 and 530 nm for bacteria and fungi, respectively.
(§2) The MICs were determined by broth microdilution method according to the Clinical and Laboratory Standard Institute guidelines. For this purpose, initial inoculums of bacteria (5 × 10^5 CFU/mL) in MHB and yeasts (2 × 10^3 CFU/mL) in RPMI-1640 with 2% D-glucose were exposed to the ranging concentration of lipopeptides (1–512 μg/mL) and incubated at 37 °C for 18 h and 24 h, respectively. The experiments were conducted on 96-well microtiter polystyrene plates (Kartell, Italy). The growth was assessed visually after incubation and the MIC was assumed as the lowest peptide concentration at which a noticeable growth of microorganisms was inhibited. Benzalkonium chloride (Sigma-Aldrich, Germany) was used as reference compound. All experiments were conducted in triplicate.

C. glabrata ATCC 15126 = format: cell-based, Candida glabrata; conditions: ATCC 15126, 24 h
Description: as §1, §2

[3] = tested on: human keratinocyte cell line (HaCaT); format: cell-based; conditions: 24 h
Description: The immortalized human keratinocyte cell line (HaCaT), obtained from CLS (Cell Line Service, Germany) was cultured in DMEM-high glucose (Dulbecco’s Modified Eagle Medium) supplemented with 10% fetal bovine serum, 2 mM L-glutamine, 100 U/mL penicillin and 100 μg/mL streptomycin (Sigma-Aldrich; Merck KGaA) at 37 °C in a humidified atmosphere with 5% CO2. Cells were trypsinized, and the medium was renewed 2–3 times per week. The cytotoxicity of compounds was assessed by colorimetric CellTilter 96® Aqueous One Solution Cell Proliferation Assay (Promega, USA), containing a tetrazolium compound according to the manufacturer’s instructions. In brief, 7 × 10^3 HaCaT cells per well were plated on 96-well plates and incubated per night to adhere to the cultured dishes. After that time, different concentrations of the tested compounds ranging from 512 to 1 μg/mL were applied to the wells. Every compound was medium-soluble at 37 °C; thus, the non-treated cells were negative control. Serial dilutions of the tested compounds were always prepared before use. Cells were incubated with drugs for 24 h, and then, 20 μL of the CellTiter 96®AqueousOne Solution Reagent was added to each well containing treated cells in 100 µl of culture medium. After 4 h of incubation at 37 °C, the absorbance at 490 nm was recorded using a microplate reader (Epoch, BioTek Instruments, USA). The quantity of formazan product as measured by the amount of 490 nm absorbance is directly proportional to the number of living cells in culture. Benzalkonium chloride (Sigma-Aldrich, Germany) was used as reference compound. At least three independent experiments with two replicates were conducted for each concentration of a compound, and the IC50 values were calculated using GraphPad Prism 8 software.

K. aerogenes ATCC 13048 = format: cell-based, Klebsiella aerogenes; conditions: ATCC 13048, 18 h
Description: as §1, §2

[4] = tested on: human red blood cells (RBCs); format: cell-based; conditions: red cells of human
Description: The hemolysis assay was conducted using a procedure described previously. For this purpose, human red blood cells (RBCs) isolated from K2EDTA Single Donor Human Whole blood (Innovative Research, Inc, MI, USA) were rinsed with Phosphate-buffer saline (PBS, pH 7.4±0.05, composition - KCl 2.7 mM, NaCl 140 mM, phosphate 10mM; AppliChem GmbH, Germany) by centrifugation for 10 min at 800 × g. This process was repeated 3 times and the RBCs were resuspended in PBS. Then, the stock solution of RBCs was added to the serial dilution of lipopeptides on 96-well polystyrene plates to reach a final volume of 100 μL with a 4% concentration of erythrocytes (v/v) and a concentration range of 1-512 μg/mL of tested compounds. The control wells for 0% and 100% hemolysis consisted of RBCs suspended in PBS and 1% of Triton X-100 (Sigma-Aldrich, Germany), respectively. Benzalkonium chloride (Sigma-Aldrich, Germany) was used as reference compound. Subsequently, the plates were incubated for 60 min at 37 °C and then centrifuged at 800 × g for 10 min at 4 °C (Sorvall ST […] Centrifuge, Thermo Scientific). The supernatant was carefully […] to new microtiter plates. The release of hemoglobin was monitored absorbance measurements at 540 nm (MultiskanTM GO Microplate Spectrophotometer, Thermo Scientific). All experiments were conducted in triplicate. HC50 was calculated using an ic50.tk tool.

P. aeruginosa ATCC 9027 = format: cell-based, Pseudomonas aeruginosa; conditions: ATCC 9027, 18 h
Description: as §1, §2

S. aureus ATCC 33591 = format: cell-based, Staphylococcus aureus; conditions: ATCC 33591, 18 h
Description: as §1, §2

E. faecium ATCC 700221 = format: cell-based, Enterococcus faecium; conditions: ATCC 700221, 18 h
Description: as §1, §2

[5] = tested on: A. baumannii ATCC BAA 1605; format: cell-based, Acinetobacter baumannii; conditions: ATCC BAA 1605, 18 h
Description: as §1, §2

With C16-CRRKKC-NH2 as the molecule, how does the IC50 (human keratinocytes) read?
Its IC50 is 21.3 ± 8.2.

With C12-Orn-Orn-Trp-Trp-NH2 as the molecule, how does the MIC (S. aureus) read?
The MIC was 0.95 to 1.95 µg/mL.

Which IC50 (human keratinocytes) does the source give for C16-RRKK-NH2 [Peptide C16-RRKK-NH2] here?
Its IC50 is 8.1 ± 1.1.

With `C[N+](C)(C)CC(=O)O` [betaine, N,N,N-trimethylglycine] as the molecule, how does the solubility in water [1] read?
Its solubility in water is 611 mg/mL.

With `CCCCCCCCCCCCCC(=O)N[C@@H](CCCCN)C(=O)N[C@@H](CCCCN)C(=O)N[C@@H](CCCCN)C(N)=O` [Peptide 3M, C14-KKK-NH2] as the molecule, how does the MIC [2] read?
Its MIC is over 512 µg/mL.

And the MIC (C. glabrata ATCC 15126)?
The MIC was 512 µg/mL (≈ 837 µM).

And the IC50 [3]?
Its IC50 is 237.60 ± 31.18 µg/mL (≈ 388 µM).

What about the MIC (K. aerogenes ATCC 13048) of the same molecule?
Its MIC is 256 µg/mL (≈ 418 µM).

What about the HC50 [4] of the same molecule?
Its HC50 is over 512 µg/mL.

What about the MIC (P. aeruginosa ATCC 9027) of the same molecule?
Its MIC is 128 µg/mL (≈ 209 µM).

And the MIC (S. aureus ATCC 33591)?
Its MIC is 64 µg/mL (≈ 105 µM).

And the MIC (E. faecium ATCC 700221)?
The MIC was 32 µg/mL (≈ 52.3 µM).

And the MIC [5]?
Its MIC is 512 µg/mL (≈ 837 µM).
